Laboratory results reported in US12624127B2, “Chitosan derivatives as antimicrobials and synergistic combinations thereof” (priority 2022, dated 2026).

Experiments:
A. baumannii = test: MIC determination, broth micro dilution; type: cell-based, Acinetobacter baumannii; conditions: A. baumannii AB-1, antibiotic alone; for MIC: Acinetobacter baumannii, read-out: MIC of antibiotic without 2,6-DAC
Procedure: (§1) MIC values were determined using a broth micro dilution method. Bacteria cells were grown overnight at 37° C. in MHB to a mid-log phase (OD600 between 0.4-0.5 for each organism) and diluted in MHB to 10^5 CFU/mL. […] 50 μL of the 1-5×10^5 CFU/mL bacterial cultures (final concentration) was aliquoted into 96-well microtiter plates and mixed with 50 μL of two-fold dilutions of the polymer or antibiotics and incubated for 16-18 h at 37° C. with shaking at 200 rpm.
(§2) 2,6-DAC was screened as a potentiating agent for synergistic combinations with antibiotics against both A. baumannii AB-1 and MRSA USA300. Before the synergy tests, the MIC values of antibiotics were tested against MDR A. baumannii AB-1 and MRSA USA300 by following the MIC determination protocol in Example 4. Then, the synergy of 2,6-DAC with antibiotics was determined.

A. baumannii AB-1 [1] = test: Time killing assay; type: cell-based, Acinetobacter baumannii; conditions: for Killing of bacteria by single agent (in words): sub-inhibitory concentration, alone, 24 h
Procedure: The plates were sealed and incubated at 37° C. with shaking at 200 rpm.
At 0, 0.5, 1, 2, 3, 5, and 24 h post-inoculation, each well was thoroughly mixed with a multi-channel pipette and 20 μL of sample was removed, serially diluted in sterile PBS, plated on LB agar plates, and incubated at 37° C. for 12 h. Colonies were counted to determine the CFU/mL at each time point.
(§3) Synergy was measured by time killing assay and checkerboard assay. Time killing assay was performed by following the protocol in Example 4. Checkerboard susceptibility assays to measure combinations of antimicrobials were performed in MHB at 37° C. as previously described (K. R. V. Thappeta et al., ACS Infect. Dis. 2020, 6, 1228-1237; and Z. Si et al., Angew. Chem. Int. Ed. 2020, 59, 6819-6826). The fractional inhibitory concentration (FIC) indices were calculated according to the following formula: […]

A. baumannii AB-1 [2] = test: Checkerboard synergy assay of 2,6-DAC with antibiotics; type: cell-based, Acinetobacter baumannii; conditions: for Synergy with 2,6-DAC (in words) / MIC, antibiotic in combination: A. baumannii AB-1; for MIC, antibiotic in combination: antibiotic concentration in combination with 2,6-DAC (8 μg/mL); for MIC of antibiotic +16 μg/mL 2,6-DAC / MIC of antibiotic +32 μg/mL 2,6-DAC: A. baumannii AB-1 (MDR)
Procedure: as §2, §3

MRSA = test: MIC determination, broth micro dilution; type: cell-based; conditions: MRSA USA300; for MIC: Staphylococcus aureus, read-out: MIC of antibiotic alone / without 2,6-DAC
Procedure: as §1, §2

MRSA USA300 = test: Checkerboard synergy assay of 2,6-DAC with antibiotics; type: cell-based; conditions: for MIC, antibiotic in combination: antibiotic concentration in combination with 2,6-DAC
Procedure: as §2, §3

Molecule: C[C@]1(Cn2ccnn2)[C@H](C(=O)O)N2C(=O)C[C@H]2S1(=O)=O [Tazobactam]
- MIC (A. baumannii): 64 µg/mL
- Bactericidal efficacy, combination with 2,6-DAC (A. baumannii AB-1 [1]; 2,6-DAC 0.5×MIC + tazobactam 0.06×MIC): 4 log10
- Killing of bacteria by single agent (in words) (A. baumannii AB-1 [1]): no killing of bacteria
- Synergy with 2,6-DAC (in words) (A. baumannii AB-1 [2]): synergistic activity
- MIC, antibiotic in combination (A. baumannii AB-1 [2]): 16 µg/mL

Molecule: C[C@@H](O)[C@H]1C(=O)N2C(C(=O)O)=C(S[C@@H]3CN[C@H](CNS(N)(=O)=O)C3)[C@H](C)[C@H]12 [Doripenem]
- MIC (A. baumannii): 32 µg/mL
- MIC of antibiotic +16 μg/mL 2,6-DAC (A. baumannii AB-1 [2]): 4 µg/mL
- MIC of antibiotic +32 μg/mL 2,6-DAC (A. baumannii AB-1 [2]): ≤2 µg/mL

Molecule: CC1(C)S[C@@H]2[C@H](NC(=O)C(C(=O)O)c3ccccc3)C(=O)N2[C@H]1C(=O)O (stereo partly drawn) [Carbenicillin]
- MIC (MRSA): 8 µg/mL
- MIC, antibiotic in combination (MRSA USA300): 2 µg/mL

Molecule: C[C@@H](O)[C@H]1C(=O)N2C(C(=O)O)=C(S[C@@H]3CN[C@H](C(=O)N(C)C)C3)[C@H](C)[C@H]12 [Meropenem]
- MIC (MRSA): 1 µg/mL
- MIC (A. baumannii): 64 µg/mL
- MIC of antibiotic +16 μg/mL 2,6-DAC (A. baumannii AB-1 [2]): 4 µg/mL
- MIC of antibiotic +32 μg/mL 2,6-DAC (A. baumannii AB-1 [2]): 1 µg/mL
- MIC, antibiotic in combination (MRSA USA300): 0.5 µg/mL

Molecule: COc1cc(Cc2cnc(N)nc2N)cc(OC)c1OC [Trimethoprim]
- Synergy with 2,6-DAC (in words) (MRSA USA300): no synergy

Molecule: CC[C@H]1OC(=O)[C@H](C)[C@@H](O[C@H]2C[C@@](C)(OC)[C@@H](O)[C@H](C)O2)[C@H](C)[C@@H](O[C@@H]2O[C@H](C)C[C@H](N(C)C)[C@H]2O)[C@](C)(O)C[C@@H](C)CN(C)[C@H](C)[C@@H](O)[C@]1(C)O [Azithromycin]
- MIC (A. baumannii): 128 µg/mL
- MIC of antibiotic +16 μg/mL 2,6-DAC (A. baumannii AB-1 [2]): 64 µg/mL
- MIC of antibiotic +32 μg/mL 2,6-DAC (A. baumannii AB-1 [2]): 1 µg/mL

Molecule: CC(=O)OCC1=C(C(=O)O)N2C(=O)[C@@H](NC(=O)Cc3cccs3)[C@H]2SC1 [Cephalothins]
- MIC of antibiotic without 2,6-DAC (A. baumannii): >128 µg/mL
- MIC of antibiotic +16 μg/mL 2,6-DAC (A. baumannii AB-1 [2]): 128 µg/mL
- MIC of antibiotic +32 μg/mL 2,6-DAC (A. baumannii AB-1 [2]): 2 µg/mL

Molecule: NC[C@H]1O[C@H](O[C@H]2[C@H](O)[C@@H](O[C@H]3O[C@H](CO)[C@@H](O)[C@H](N)[C@H]3O)[C@H](N)C[C@@H]2N)[C@H](N)C[C@@H]1O [Tobramycin]
- MIC (MRSA): 1 µg/mL
- MIC of antibiotic without 2,6-DAC (A. baumannii): >128 µg/mL
- MIC (A. baumannii): > 128 µg/mL
- Reduction, combination with 2,6-DAC (A. baumannii AB-1 [1]; 2,6-DAC 0.5×MIC + tobramycin 0.002×MIC): 2 log10
- Killing of bacteria by single agent (in words) (A. baumannii AB-1 [1]): no killing of bacteria
- Synergy with 2,6-DAC (in words) (A. baumannii AB-1 [2]): synergistic activity
- MIC, antibiotic in combination (A. baumannii AB-1 [2]): 2 µg/mL
- MIC, antibiotic in combination (MRSA USA300): 0.25 µg/mL

Molecule: CC1COc2c(N3CCN(C)CC3)c(F)cc3c(=O)c(C(=O)O)cn1c23 (stereo not drawn) [Ofloxacin]
- MIC (A. baumannii): 8 µg/mL
- MIC of antibiotic +16 μg/mL 2,6-DAC (A. baumannii AB-1 [2]): 8 µg/mL
- MIC of antibiotic +32 μg/mL 2,6-DAC (A. baumannii AB-1 [2]): 4 µg/mL

Molecule: CCN1CCN(C(=O)N[C@@H](C(=O)N[C@@H]2C(=O)N3[C@@H]2SC(C)(C)[C@@H]3C(=O)O)c2ccccc2)C(=O)C1=O [Piperacillin]
- MIC (MRSA): 4 µg/mL
- Synergy with 2,6-DAC (in words) (MRSA USA300): no synergy

Molecule: C[C@@H](O)[C@H]1C(=O)N2C(C(=O)O)=C(S[C@@H]3CN[C@H](C(=O)Nc4cccc(C(=O)O)c4)C3)[C@H](C)[C@H]12 [Ertapenem]
- MIC (A. baumannii): > 128 µg/mL
- MIC of antibiotic +16 μg/mL 2,6-DAC (A. baumannii AB-1 [2]): 4 µg/mL
- MIC of antibiotic +32 μg/mL 2,6-DAC (A. baumannii AB-1 [2]): 2 µg/mL

Molecule: O=C(N[C@H](CO)[C@H](O)c1ccc([N+](=O)[O-])cc1)C(Cl)Cl [Chloramphenicol]
- MIC (MRSA): 4 µg/mL
- Synergy with 2,6-DAC (in words) (MRSA USA300): no synergy

Molecule: C[C@H]1COc2c(N3CCN(C)CC3)c(F)cc3c(=O)c(C(=O)O)cn1c23 [Levofloxacin]
- MIC (A. baumannii): 4 µg/mL
- MIC of antibiotic +16 μg/mL 2,6-DAC (A. baumannii AB-1 [2]): 2 µg/mL
- MIC of antibiotic +32 μg/mL 2,6-DAC (A. baumannii AB-1 [2]): ≤1 µg/mL

Molecule: CC[C@H]1OC(=O)[C@H](C)[C@@H](O[C@H]2C[C@@](C)(OC)[C@@H](O)[C@H](C)O2)[C@H](C)[C@@H](O[C@@H]2O[C@H](C)C[C@H](N(C)C)[C@H]2O)[C@](C)(O)C[C@@H](C)C(=O)[C@H](C)[C@@H](O)[C@]1(C)O [Erythromycin]
- MIC (A. baumannii): > 128 µg/mL
- MIC of antibiotic +16 μg/mL 2,6-DAC (A. baumannii AB-1 [2]): 64 µg/mL
- MIC of antibiotic +32 μg/mL 2,6-DAC (A. baumannii AB-1 [2]): 4 µg/mL

Molecule: O=C(O)c1cn(C2CC2)c2cc(N3CCNCC3)c(F)cc2c1=O [Ciprofloxacin]
- MIC (MRSA): 8 µg/mL
- Synergy with 2,6-DAC (in words) (MRSA USA300): no synergy

Molecule: Colistin
- MIC of antibiotic alone / without 2,6-DAC (MRSA): 50 µg/mL
- Synergy with 2,6-DAC (in words) (MRSA USA300): no synergy

Molecule: C[C@@H](O)[C@H]1C(=O)N2C(C(=O)O)=C(SCCN=CN)C[C@H]12 [Imipenem]
- MIC (A. baumannii): 64 µg/mL
- MIC of antibiotic +16 μg/mL 2,6-DAC (A. baumannii AB-1 [2]): 8 µg/mL
- MIC of antibiotic +32 μg/mL 2,6-DAC (A. baumannii AB-1 [2]): 1 µg/mL

Molecule: CC1(C)S[C@@H]2[C@H](NC(=O)[C@H](N)c3ccc(O)cc3)C(=O)N2[C@H]1C(=O)O [Amoxicillin]
- MIC (A. baumannii): > 128 µg/mL
- MIC of antibiotic +16 μg/mL 2,6-DAC (A. baumannii AB-1 [2]): 128 µg/mL
- MIC of antibiotic +32 μg/mL 2,6-DAC (A. baumannii AB-1 [2]): 16 µg/mL

Molecule: Ramoplanin
- MIC of antibiotic without 2,6-DAC (A. baumannii): >128 µg/mL
- MIC of antibiotic +16 μg/mL 2,6-DAC (A. baumannii AB-1 [2]): 128 µg/mL
- MIC of antibiotic +32 μg/mL 2,6-DAC (A. baumannii AB-1 [2]): 2 µg/mL

Molecule: CC1(C)S[C@@H]2[C@H](NC(=O)[C@H](N)c3ccccc3)C(=O)N2[C@H]1C(=O)O [Ampicillin]
- MIC (MRSA): 4 µg/mL
- MIC, antibiotic in combination (MRSA USA300): 2 µg/mL

Molecule: CC(C)(O/N=C(\C(=O)N[C@@H]1C(=O)N2C(C(=O)[O-])=C(C[n+]3ccccc3)CS[C@H]12)c1csc(N)n1)C(=O)O [Ceftazidime]
- MIC (MRSA): 16 µg/mL
- MIC (A. baumannii): > 128 µg/mL
- MIC of antibiotic +16 μg/mL 2,6-DAC (A. baumannii AB-1 [2]): 128 µg/mL
- MIC of antibiotic +32 μg/mL 2,6-DAC (A. baumannii AB-1 [2]): 2 µg/mL
- Synergy with 2,6-DAC (in words) (MRSA USA300): no synergy

Molecule: Polymyxin B
- MIC of antibiotic alone / without 2,6-DAC (MRSA): 32 µg/mL
- Synergy with 2,6-DAC (in words) (MRSA USA300): no synergy

Molecule: CO/N=C(\C(=O)N[C@@H]1C(=O)N2C(C(=O)O)=C(CSc3nc(=O)c(=O)[nH]n3C)CS[C@H]12)c1csc(N)n1 [Ceftriaxone]
- MIC (MRSA): 16 µg/mL
- MIC (A. baumannii): > 128 µg/mL
- MIC of antibiotic +16 μg/mL 2,6-DAC (A. baumannii AB-1 [2]): 128 µg/mL
- MIC of antibiotic +32 μg/mL 2,6-DAC (A. baumannii AB-1 [2]): 2 µg/mL
- Synergy with 2,6-DAC (in words) (MRSA USA300): no synergy

Molecule: CO[C@@]1(NC(=O)Cc2cccs2)C(=O)N2C(C(=O)O)=C(COC(N)=O)CS[C@@H]21 [Cefoxitin]
- MIC (A. baumannii): > 128 µg/mL
- MIC of antibiotic +16 μg/mL 2,6-DAC (A. baumannii AB-1 [2]): 128 µg/mL
- MIC of antibiotic +32 μg/mL 2,6-DAC (A. baumannii AB-1 [2]): 8 µg/mL

Molecule: NCC[C@H](O)C(=O)N[C@@H]1C[C@H](N)[C@@H](O[C@H]2O[C@H](CN)[C@@H](O)[C@H](O)[C@H]2O)[C@H](O)[C@H]1O[C@H]1O[C@H](CO)[C@@H](O)[C@H](N)[C@H]1O [Amikacin]
- MIC (MRSA): 1.56 µg/mL
- MIC of antibiotic without 2,6-DAC (A. baumannii): >128 µg/mL
- MIC (A. baumannii): > 128 µg/mL
- Bactericidal efficacy, combination with 2,6-DAC (A. baumannii AB-1 [1]; 2,6-DAC 0.5×MIC + amikacin 0.002×MIC): 4 log10
- Killing of bacteria by single agent (in words) (A. baumannii AB-1 [1]): no killing of bacteria
- Synergy with 2,6-DAC (in words) (A. baumannii AB-1 [2]): synergistic activity
- MIC, antibiotic in combination (A. baumannii AB-1 [2]): 2 µg/mL
- Synergy with 2,6-DAC (in words) (MRSA USA300): no synergy
